The target in test [1] is T1, Human HDAC3/NcoR2 (Homo sapiens, UniProt O15379).
T1 construct: Complex of human HDAC3, full length with C-terminal His tag, MW=49.7 kDa; His (C); purchased BioMol SE-507
Briefly: In vitro HDAC3 inhibition, fluorogenic peptide assay. Format: biochemical. The following applies: for IC50: read-out: IC50 (nM) of enzyme activity HDAC3. Here is the method:
(§1) All HDAC assays were performed using acetylated AMC-labeled peptide substrate: • Substrate for isoforms HDAC1, 2, 3, 4, 5, 6, 7, 9, 10, 11 and HeLa nuclear extract assays: Acetylated fluorogenic peptide from p53 residues 379-382 (RHKKAc) (BioMol. Cat. # KI-104). • Substrate for HDAC8 assays: Acetylated fluorogenic peptide from p53 residues 379-382 (RHKAcKAc) (BioMol. Cat. # KI-178).
(§2) Enzymes: • HDAC1 assay: 75 nM Human HDAC1 (GenBank Accession No. NM_004964): Full length with C-terminal GST tag, MW=79.9 kDa, expressed by baculovirus expression system in Sf9 cells (BioMol. Cat. # SE-456). • HDAC2 assay: 5 nM Human HDAC2 (GenBank Accession No. Q92769): Full length with C-terminal His tag, MW=60 kDa, expressed by baculovirus expression system in Sf9 cells (BioMol. Cat. # SE-500). • HDAC3 assay: 2.3 nM Human HDAC3/NcoR2 (GenBank Accession No. NM_003883 for HDAC3, GenBank Accession No.NM_006312 for NcoR2): Complex of human HDAC3, full length with C-terminal His tag, MW=49.7 kDa, and human NCOR2, N-terminal GST tag, MW=39 kDa, co-expressed in baculovirus expression system (BioMol. Cat. # SE-507). • HDAC4 assay: 266 nM Human HDAC4 (GenBank Accession No. NM_006037): Amino acids 627-1085 with N-terminal GST tag, MW=75.2 kDa, expressed in baculovirus expression system (BioMol, Hamburg, Germany). • HDAC5 assay: 588 nM Human HDAC5 (GenBank Accession No. NM_001015053): Full length with Nterminal GST tag, MW=150 kDa, expressed by baculovirus expression system in Sf9 cells (BioMol, Hamburg, Germany). • HDAC6 assay: 13 nM Human HDAC6 (GenBank Accession No. BC069243): Full length with N-terminal GST tag, MW=159 kDa, expressed by baculovirus expression system in Sf9 cells (BioMol. Cat. # SE-508). • HDAC7 assay: 962 nM Human HDAC7 (GenBank Accession No. AY302468): Amino acids 518-end with N-terminal GST tag, MW=78 kDa, expressed in baculovirus expression system (BioMol, Hamburg, Germany). • HDAC8 assay: 119 nM Human HDAC8 (GenBank Accession No. NM018486): Full length, MW=42 kDa, expressed in an E. coli expression system (BioMol. Cat. # SE-145). • HDAC9 assay: 986 nM Human HDAC9 (GenBank Accession No. NM178423): Amino acids 604-1066 with C-terminal His tag, MW=50.7 kDa, expressed in baculovirus expression system (BioMol, Hamburg, Germany). • HDAC10 assay: 781 nM Human HDAC10 (GenBank Accession No. NM_032019): Amino acids 1-631 with Nterminal GST tag, MW=96 kDa, expressed by baculovirus expression system in Sf9 cells (BioMol. Cat. # SE-559). • HDAC11 assay: 781 nM Human HDAC11 (GenBank Accession No. NM_BC009676) with N-terminal GST tag, MW=66 kDa, expressed in baculovirus expression system (BioMol. Cat. # SE-560). • HeLaNuclear Extract assay: 25 ng/μl Nuclear Extract from HeLa Cells: Prepared by high salt extraction of HeLa nuclei (human cervical cancer cell line), this extract is a rich source of HDAC activity (BioMol. Cat. # KI-140).
(§3) The reactions were carried out in a 96-well microplate for fluorometry in a 50 μl reaction volume. After the deacetylation reaction, Fluor-de-Lys-Developer (BioMol Cat. # KI-105) was added to each well to digest the deacetylated substrate, thus producing the fluorescent signal. The reaction was allowed to develop for 45 minutes at 30° C. with 5% CO2; then the fluorescent signal was measured with an excitation wavelength at 360 nm and an emission wavelength at 460 nm in a microplate-reading fluorometer (GeminiXS; Molecular Devices, Sunnyvale, Calif.). […] All experiments were performed in triplicate. IC50 was calculated by fitting the experimental data to a dose-response curve. DMSO was used as negative control; Trichostatin A (Biomol Cat. # GR-309) was used as positive control inhibitor.

Test [2] has as its target T2, Human HDAC2 (Homo sapiens, UniProt Q92769).
T2 construct: Full length with C-terminal His tag, MW=60 kDa; His (C); purchased BioMol SE-500; host or cells: Sf9 cells, baculovirus
The test can be described thus: In vitro HDAC2 inhibition, fluorogenic peptide assay. Format: biochemical. The settings on record: for IC50: read-out: IC50 (nM) of enzyme activity HDAC2. Here is the method: as §1, §2, §3

In test [3] the target is T3, Human HDAC1 (Homo sapiens, UniProt Q13547).
T3 construct: Full length with C-terminal GST tag, MW=79.9 kDa; GST (C); purchased BioMol SE-456; host or cells: Sf9 cells, baculovirus
T3 sequence (Q13547 whole entry): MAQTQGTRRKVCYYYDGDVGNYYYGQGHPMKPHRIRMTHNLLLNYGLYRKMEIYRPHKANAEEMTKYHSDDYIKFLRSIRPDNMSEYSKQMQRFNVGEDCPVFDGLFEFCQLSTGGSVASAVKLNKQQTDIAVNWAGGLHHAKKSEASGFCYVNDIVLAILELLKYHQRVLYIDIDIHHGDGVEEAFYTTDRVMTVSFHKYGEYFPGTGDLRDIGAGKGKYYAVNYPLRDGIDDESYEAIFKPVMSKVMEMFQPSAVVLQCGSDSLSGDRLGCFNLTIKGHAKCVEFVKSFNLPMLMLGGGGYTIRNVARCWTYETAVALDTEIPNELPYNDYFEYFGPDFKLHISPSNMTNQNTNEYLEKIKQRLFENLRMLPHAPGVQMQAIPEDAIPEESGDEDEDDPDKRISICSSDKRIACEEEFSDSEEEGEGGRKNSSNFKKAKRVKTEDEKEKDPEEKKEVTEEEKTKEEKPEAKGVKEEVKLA
The test can be described thus: In vitro HDAC1 inhibition, fluorogenic peptide assay. Format: biochemical. The following applies: for IC50: read-out: IC50 (nM) of enzyme activity HDAC1. As to the method:
as §1, §2, §3

Test [4] concerns the target T4, Human HDAC8 (Homo sapiens, UniProt Q9BY41).
T4 construct: Full length, MW=42 kDa, expressed in an E. coli expression system; purchased BioMol SE-145; host or cells: E. coli
T4 sequence (Q9BY41 1-377): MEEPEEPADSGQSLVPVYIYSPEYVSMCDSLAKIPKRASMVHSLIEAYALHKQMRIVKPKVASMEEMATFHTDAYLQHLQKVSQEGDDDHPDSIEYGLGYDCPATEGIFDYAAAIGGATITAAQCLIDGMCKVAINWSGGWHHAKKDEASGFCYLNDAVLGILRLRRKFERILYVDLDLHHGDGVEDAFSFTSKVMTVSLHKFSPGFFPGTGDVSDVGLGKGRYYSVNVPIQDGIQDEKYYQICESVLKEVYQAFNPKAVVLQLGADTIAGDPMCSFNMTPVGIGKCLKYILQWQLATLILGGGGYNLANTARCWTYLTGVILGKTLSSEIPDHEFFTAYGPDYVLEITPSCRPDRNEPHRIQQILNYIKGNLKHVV
The test can be described thus: In vitro HDAC8 inhibition, fluorogenic peptide assay. Format: biochemical. The following applies: for IC50: read-out: IC50 (nM) of enzyme activity HDAC8. As to the method:
as §1, §2, §3

The test system of test [5] is T5, Nuclear Extract from HeLa Cells.
T5 construct: 25 ng/μl Nuclear Extract from HeLa Cells: Prepared by high salt extraction of HeLa nuclei (human cervical cancer cell line)
The test can be described thus: HeLa nuclear extract HDAC inhibition assay. The settings on record: HeLa cell line nuclear extract. In kind it is biochemical, Human. Here is the method:
as §1, §2, §3

Each structure is given as a SMILES string.

T1 sequence (O15379 whole entry): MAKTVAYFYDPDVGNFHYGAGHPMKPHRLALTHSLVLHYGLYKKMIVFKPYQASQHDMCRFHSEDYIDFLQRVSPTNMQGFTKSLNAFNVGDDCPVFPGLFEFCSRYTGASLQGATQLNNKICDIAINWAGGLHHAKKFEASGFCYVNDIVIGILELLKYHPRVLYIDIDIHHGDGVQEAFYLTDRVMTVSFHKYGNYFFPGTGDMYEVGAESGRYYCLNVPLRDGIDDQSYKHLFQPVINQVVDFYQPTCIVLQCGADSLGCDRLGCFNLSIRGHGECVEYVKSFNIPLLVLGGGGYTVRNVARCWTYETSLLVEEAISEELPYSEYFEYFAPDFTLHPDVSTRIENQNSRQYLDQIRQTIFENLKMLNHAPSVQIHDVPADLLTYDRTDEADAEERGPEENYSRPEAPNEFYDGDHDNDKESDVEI
T1 sequence (Q9Y618 395-489 partner limits assumed): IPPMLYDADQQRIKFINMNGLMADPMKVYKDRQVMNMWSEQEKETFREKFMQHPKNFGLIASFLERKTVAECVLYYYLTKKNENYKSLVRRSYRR
T2 sequence (Q92769 whole entry): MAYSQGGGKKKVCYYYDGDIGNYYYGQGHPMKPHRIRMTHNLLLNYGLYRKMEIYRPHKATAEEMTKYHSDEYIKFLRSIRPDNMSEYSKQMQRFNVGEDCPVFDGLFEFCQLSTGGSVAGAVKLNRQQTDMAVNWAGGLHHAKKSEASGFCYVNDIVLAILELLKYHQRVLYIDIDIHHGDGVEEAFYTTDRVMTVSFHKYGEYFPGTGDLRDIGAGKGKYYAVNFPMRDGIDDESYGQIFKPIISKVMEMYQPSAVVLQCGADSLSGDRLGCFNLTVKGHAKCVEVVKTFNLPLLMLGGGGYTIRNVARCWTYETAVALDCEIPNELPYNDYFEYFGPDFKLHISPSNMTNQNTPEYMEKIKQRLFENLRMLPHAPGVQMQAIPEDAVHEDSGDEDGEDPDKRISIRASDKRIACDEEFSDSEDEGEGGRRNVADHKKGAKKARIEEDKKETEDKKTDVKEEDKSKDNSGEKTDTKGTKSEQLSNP

For the compound `O=C(CCCCCNC(=O)c1[nH]c(-c2ccc(O)cc2)cc1-c1ccoc1)NO` [Example 5, 3-(3-furyl)-N-(5-(hydroxycarbamoyl)pentyl)-5-(4-hydroxy-phenyl)-1H-pyrrole-2-carboxamide], the IC50 in test [1] is 20 nM; in test [2], 56 nM; in test [3], 19 nM; in test [4], 278 nM; in test [5], 1.6 nM.

On to `COc1ccc(-c2cc(-c3ccccc3)[nH]c2C(=O)NCCCCCC(=O)NO)cc1` [Compound A, N-[6-(hydroxyamino)-6-oxohexyl]-3-(4-methoxyphenyl)-5-phenyl-1H-pyrrole-2-carboxamide, reference compound], for which, in test [1], the “Selectivity against HDAC6 (IC50 HDACx/IC50 HDAC6) HDAC3” value stood at 28.6 and the IC50 was 572 nM. In addition, in test [2], the “Selectivity against HDAC6 (IC50 HDACx/IC50 HDAC6) HDAC2” value stood at 64.7 and the IC50 was 1290 nM. Also, in test [3], the “Selectivity against HDAC6 (IC50 HDACx/IC50 HDAC6) HDAC1” value worked out at 23.2 and the half-maximal inhibitory concentration (IC50) was determined as 464 nM. Further, in test [4], the “Selectivity against HDAC6 (IC50 HDACx/IC50 HDAC6) HDAC8” value amounted to 9.6 and the IC50 turned out to be 192 nM. This compound yielded an IC50 in test [5] of 61 nM.

For `O=C(CCCCCNC(=O)c1[nH]c(-c2ccsc2)cc1-c1ccc(O)cc1)NO` [Example 3, N-(5-(hydroxycarbamoyl)pentyl)-3-(4-hydroxyphenyl)-5-(3-thienyl)-1H-pyrrole-2-carboxamide], the IC50 in test [1] was determined as 441 nM; in test [2] it was 1270 nM; in test [3] it was 438 nM; in test [4], 975 nM; in test [5], 46 nM.

Consider `O=C(CCCCCNC(=O)c1[nH]c(-c2ccc(O)cc2)cc1-c1ccsc1)NO` [Example 6, N-(5-(hydroxycarbamoyl)pentyl)-5-(4-hydroxyphenyl)-3-(3-thienyl)-1H-pyrrole-2-carboxamide], for which the IC50 in test [1] turned out to be 71 nM; in test [2], 203 nM; in test [3] it was 49 nM; in test [4], 104 nM; in test [5] it was 7.3 nM.

Take `O=C(CCCCCNC(=O)c1[nH]c(-c2ccoc2)cc1-c1ccc(O)cc1)NO` [Example 4, 5-(3-furyl)-N-(5-(Hydroxycarbamoyl)pentyl)-3-(4-hydroxy-phenyl)-1H-pyrrole-2-carboxamide]: the IC50 was determined as 341 nM in test [1]; 864 nM in test [2]; 353 nM in test [3]; 591 nM in test [4]; 33 nM in test [5].

For `O=C(CCCCCNC(=O)c1[nH]c(-c2ccccc2)cc1-c1ccc(O)cc1)NO` [Example 1, N-(6-(hydroxyamino)-6-oxohexyl)-3-(4-hydroxyphenyl)-5-phenyl-1H-pyrrole-2-carboxamide], in test [1], the “Selectivity against HDAC6 (IC50 HDACx/IC50 HDAC6) HDAC3” value amounted to 31.2 and the IC50 came out at 437 nM. Moreover, in test [2], the “Selectivity against HDAC6 (IC50 HDACx/IC50 HDAC6) HDAC2” value is recorded as 81.1 and the IC50 is 1140 nM. For the same compound, in test [3], the “Selectivity against HDAC6 (IC50 HDACx/IC50 HDAC6) HDAC1” value is on record as 25.3 and the IC50 is 354 nM. In addition, in test [4], the “Selectivity against HDAC6 (IC50 HDACx/IC50 HDAC6) HDAC8” value turned out to be 54.8 and the 50% inhibitory concentration (IC50) was 767 nM. The IC50 in test [5] came out at 31 nM.

Take `O=C(CCCCCNC(=O)c1[nH]c(-c2ccc(O)cc2)cc1-c1ccccc1)NO` [Example 2, N-(6-(hydroxyamino)-6-oxohexyl)-5-(4-hydroxyphenyl)-3-phenyl-1H-pyrrole-2-carboxamide]: in test [1], the “Selectivity against HDAC6 (IC50 HDACx/IC50 HDAC6) HDAC3” value worked out at 32.9 and the IC50 was 250 nM. Also, in test [2], the “Selectivity against HDAC6 (IC50 HDACx/IC50 HDAC6) HDAC2” value was 52.1 and the half-inhibitory concentration (IC50) was 396 nM. For the same compound, in test [3], the “Selectivity against HDAC6 (IC50 HDACx/IC50 HDAC6) HDAC1” value was found to be 20.1 and the IC50 stood at 153 nM. Also, in test [4], the “Selectivity against HDAC6 (IC50 HDACx/IC50 HDAC6) HDAC8” value was 21.3 and the IC50 amounted to 162 nM. For the same compound, inhibition in test [5] was half-maximal at 18 nM (IC50).

Consider `COc1ccc(-c2cc(-c3ccccc3)c(C(=O)NCCCCCC(=O)NO)[nH]2)cc1` [Compound B, N-[6-(hydroxyamino)-6-oxohexyl]-5-(4-methoxyphenyl)-3-phenyl-1H-pyrrole-2-carboxamide, reference compound], for which, in test [1], the “Selectivity against HDAC6 (IC50 HDACx/IC50 HDAC6) HDAC3” value amounted to 13.0 and the IC50 is 415 nM. For the same compound, in test [2], the “Selectivity against HDAC6 (IC50 HDACx/IC50 HDAC6) HDAC2” value is listed as 28.7 and the IC50 was 918 nM. Further, in test [3], the “Selectivity against HDAC6 (IC50 HDACx/IC50 HDAC6) HDAC1” value is 8.6 and the IC50 amounted to 276 nM. For the same compound, in test [4], the “Selectivity against HDAC6 (IC50 HDACx/IC50 HDAC6) HDAC8” value is given as 5.4 and the concentration for half-maximal inhibition (IC50) amounted to 174 nM. In test [5], this compound returned an IC50 of 27 nM.
